Experimental data reported in ChEMBL document CHEMBL4665677, “Recent Advances of SHP2 Inhibitors in Cancer Therapy: Current Development and Clinical Application” (J Med Chem, 2020).
Values belong to the molecule of their own block, whether it stands above or below them.

Assays:
[1] = molecular target: T1, Tyrosine-protein phosphatase non-receptor type 11 (Homo sapiens, UniProt Q06124); assay: Inhibition of N-terminal His6-tagged TEV cleavage site-fused human SHP2 catalytic domain (248 to 527 residues) expressed in Escherichia coli Rosetta(DE3) using 6,8-difluoro-4-methylum-belliferylphosphate as substrate preincubated for 1 hr followed by substrate addition by fluorescence method
T1 sequence (Q06124 whole entry): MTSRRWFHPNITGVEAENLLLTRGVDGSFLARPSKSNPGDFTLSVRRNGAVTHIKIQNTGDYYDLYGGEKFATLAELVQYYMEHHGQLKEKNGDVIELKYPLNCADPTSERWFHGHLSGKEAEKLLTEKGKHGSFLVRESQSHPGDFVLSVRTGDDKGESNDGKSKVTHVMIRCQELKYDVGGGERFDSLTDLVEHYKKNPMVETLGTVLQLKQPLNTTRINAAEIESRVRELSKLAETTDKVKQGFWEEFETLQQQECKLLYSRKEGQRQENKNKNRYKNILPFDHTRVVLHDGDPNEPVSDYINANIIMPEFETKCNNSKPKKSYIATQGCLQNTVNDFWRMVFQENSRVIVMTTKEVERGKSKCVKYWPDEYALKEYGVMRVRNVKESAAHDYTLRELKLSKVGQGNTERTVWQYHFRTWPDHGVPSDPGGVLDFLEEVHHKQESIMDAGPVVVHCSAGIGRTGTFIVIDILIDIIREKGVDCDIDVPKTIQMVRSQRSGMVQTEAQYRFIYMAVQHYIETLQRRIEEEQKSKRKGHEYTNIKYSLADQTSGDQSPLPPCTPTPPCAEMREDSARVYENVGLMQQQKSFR

[2] = molecular target: T2, Tyrosine-protein phosphatase non-receptor type 6 (Homo sapiens, UniProt P29350); assay: Inhibition of SHP1 (unknown origin) using 6,8-difluoro-4-methylum-belliferylphosphate as substrate preincubated for 1 hr followed by substrate by fluorescence method
T2 sequence (P29350 whole entry): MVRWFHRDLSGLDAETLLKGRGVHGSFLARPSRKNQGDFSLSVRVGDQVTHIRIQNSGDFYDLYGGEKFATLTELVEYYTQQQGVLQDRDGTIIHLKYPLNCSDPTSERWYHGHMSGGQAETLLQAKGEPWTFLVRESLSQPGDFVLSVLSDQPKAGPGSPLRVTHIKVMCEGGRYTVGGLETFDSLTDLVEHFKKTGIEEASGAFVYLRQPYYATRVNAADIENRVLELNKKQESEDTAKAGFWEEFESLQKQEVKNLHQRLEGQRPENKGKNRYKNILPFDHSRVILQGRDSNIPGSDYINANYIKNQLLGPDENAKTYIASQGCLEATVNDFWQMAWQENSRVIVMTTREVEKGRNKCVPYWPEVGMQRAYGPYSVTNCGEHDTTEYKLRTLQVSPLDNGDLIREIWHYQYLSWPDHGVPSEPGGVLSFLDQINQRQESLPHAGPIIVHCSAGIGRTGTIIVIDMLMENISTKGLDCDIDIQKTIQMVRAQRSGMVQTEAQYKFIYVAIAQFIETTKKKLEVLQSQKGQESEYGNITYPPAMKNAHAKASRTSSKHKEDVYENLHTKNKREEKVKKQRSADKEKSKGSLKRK

[3] = molecular target: T3, Tyrosine-protein phosphatase non-receptor type 1 (Homo sapiens, UniProt P18031); assay: Inhibition of PTP1B (unknown origin) using 6,8-difluoro-4-methylum-belliferylphosphate as substrate preincubated for 1 hr followed by substrate by fluorescence method
T3 sequence (P18031 whole entry): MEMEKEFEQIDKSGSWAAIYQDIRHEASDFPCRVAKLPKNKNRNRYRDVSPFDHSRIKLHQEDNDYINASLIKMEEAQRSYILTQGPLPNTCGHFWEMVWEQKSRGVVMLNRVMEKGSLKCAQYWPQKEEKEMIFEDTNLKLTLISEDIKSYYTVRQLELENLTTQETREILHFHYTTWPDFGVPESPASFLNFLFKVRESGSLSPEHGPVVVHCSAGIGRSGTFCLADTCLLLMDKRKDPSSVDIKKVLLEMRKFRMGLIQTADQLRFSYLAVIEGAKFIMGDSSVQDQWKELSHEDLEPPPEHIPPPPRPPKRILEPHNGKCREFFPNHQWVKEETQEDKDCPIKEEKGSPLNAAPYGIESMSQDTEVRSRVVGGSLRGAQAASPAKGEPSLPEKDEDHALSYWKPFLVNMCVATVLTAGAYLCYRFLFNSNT

[4] = Antitumor activity against human LXFA526L cells xenografted in NMRI nu/nu mouse assessed as induction of tumor regression at 46 mg/kg, ip administered once daily and measured on day 27 relative to control; assay type: functional; details: time 27 day
[5] = molecular target: T1, Tyrosine-protein phosphatase non-receptor type 11; assay: Inhibition of SHP2 PTP domain (unknown origin)
[6] = molecular target: Tyrosine-protein phosphatase non-receptor type 11 (Homo sapiens, UniProt Q06124, Q257L/T253M); assay: Inhibition of SHP2 T253M/Q257L double mutant (unknown origin)
Tyrosine-protein phosphatase non-receptor type 11 (Homo sapiens, UniProt Q06124, Q257L/T253M), sequence (Q06124 2-593 T253M/Q257L limits assumed): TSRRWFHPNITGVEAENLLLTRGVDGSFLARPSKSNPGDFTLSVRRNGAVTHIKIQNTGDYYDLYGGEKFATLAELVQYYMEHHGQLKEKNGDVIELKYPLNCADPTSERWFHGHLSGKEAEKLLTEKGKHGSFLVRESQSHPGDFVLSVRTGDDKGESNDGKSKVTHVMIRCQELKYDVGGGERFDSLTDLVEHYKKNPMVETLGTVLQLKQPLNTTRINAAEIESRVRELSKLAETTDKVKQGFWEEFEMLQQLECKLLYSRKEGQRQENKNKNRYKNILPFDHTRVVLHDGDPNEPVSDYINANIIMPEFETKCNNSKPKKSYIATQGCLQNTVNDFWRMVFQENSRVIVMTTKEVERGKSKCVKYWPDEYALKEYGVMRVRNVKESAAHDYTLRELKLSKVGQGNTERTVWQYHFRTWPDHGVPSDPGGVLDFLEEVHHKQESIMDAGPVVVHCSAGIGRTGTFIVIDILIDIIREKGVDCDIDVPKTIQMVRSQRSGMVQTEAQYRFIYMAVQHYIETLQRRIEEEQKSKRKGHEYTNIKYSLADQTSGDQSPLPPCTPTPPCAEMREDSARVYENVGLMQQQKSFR

[7] = molecular target: T4, Tyrosine-protein phosphatase non-receptor type 11 (Homo sapiens) (UniProt Q06124); assay: Allosteric inhibition of dPEG8 peptide-activated SHP2 (unknown origin) using DiFMUP as substrate at 100 nM preincubated for 30 followed by substrate addition and measured after 30 mins by fluorescence method relative to control
T4 sequence (whole entry): T1 sequence (Q06124 whole entry)

[8] = molecular target: T1, Tyrosine-protein phosphatase non-receptor type 11; assay: Allosteric inhibition of IRS1_pY1172(dPEG8)pY1222 activated-human full length SHP2 (Met1 to Leu525 residues) expressed in Escherichia coli BL21 Star (DE3) cells using DiFMUP as substrate preincubated for 30 to 60 mins followed by substrate addition and measured after 30 mins by fluorescence method
[9] = molecular target: T1, Tyrosine-protein phosphatase non-receptor type 11; assay: Allosteric inhibition of dPEG8 peptide-activated SHP2 (unknown origin) using DiFMUP as substrate preincubated for 30 followed by substrate addition and measured after 30 mins by fluorescence method
[10] = molecular target: T1, Tyrosine-protein phosphatase non-receptor type 11; assay: Allosteric inhibition of SHP2 (unknown origin) using DiFMUP as substrate preincubated for 60 mins in presence of activating peptide IRS-1 followed by substrate addition and measured after 60 mins by fluorescence method
[11] = molecular target: T1, Tyrosine-protein phosphatase non-receptor type 11; assay: Allosteric inhibition of full length N-terminal His6-tagged human SHP2 (2 to 593 residues) expressed in Escherichia coli using DiFMUP as substrate in presence of activating peptide preincubated for 60 mins followed by substrate addition amd measured after 30 mins by fluorescence method
[12] = molecular target: T2, Tyrosine-protein phosphatase non-receptor type 6; assay: Inhibition of His6-fused human full length SHP1 expressed in Escherichia coli cells using DiFMUP as substrate preincubated for 30 mins followed by substrate addition and by fluorescence method
[13] = molecular target: T2, Tyrosine-protein phosphatase non-receptor type 6; assay: Inhibition of His6-fused human SHP1 catalytic domain expressed in Escherichia coli cells using DiFMUP as substrate preincubated for 30 followed by substrate addition and by fluorescence method
[14] = molecular target: T3, Tyrosine-protein phosphatase non-receptor type 1; assay: Inhibition of His6-fused human PTP1B expressed in Escherichia coli cells using DiFMUP as substrate preincubated for 30 followed by substrate addition and by fluorescence method
[15] = molecular target: T1, Tyrosine-protein phosphatase non-receptor type 11; assay: Allosteric inhibition of full-length His6-tagged human SHP2 (2 to 527 residues) expressed in Escherichia coli using DiFMUP as substrate in presence of activating peptide (LN(pY)IDLDLV(dPEG8)LST(pY)ASINFQK-amide) by fluorescence method
[16] = molecular target: T1, Tyrosine-protein phosphatase non-receptor type 11; assay: Allosteric inhibition of [IRSl_pY1172(dPEG8)pY1222] peptide-activated SHP2 (unknown origin) using DiFMUP as substrate preincubated for 30 to 60 mins followed by substrate addition and measured after 30 mins by fluorescence method
[17] = molecular target: T2, Tyrosine-protein phosphatase non-receptor type 6; assay: Inhibition of N-terminal His6-tagged TEV cleavage site-fused human SHP1 (222 to 535 residues) expressed in Escherichia coli BL21(DE3)RILcodon+ or BL21(DE3)RPcodon+ using 4-nitrophenylphosphate as substrate
[18] = molecular target: T3, Tyrosine-protein phosphatase non-receptor type 1; assay: Inhibition of N-terminal His6-tagged TEV cleavage site-fused human PTP1B (2 to 297 residues) expressed in Escherichia coli BL21(DE3)RILcodon+ or BL21(DE3)RPcodon+ using 4-nitrophenylphosphate as substrate
[19] = test system: MeWo; assay: Antitumor activity against human MeWo cells xenografted in NSG (NOD/scid/IL2Rgnull) mouse assessed as reduction in tumor volume at 15 mg/kg, ip administered once daily for 21 days; assay type: functional; set-up: scale not given: the % may be the effect or the level left; details: time 21 day
[20] = molecular target: T2, Tyrosine-protein phosphatase non-receptor type 6; assay: Inhibition of recombinant His6-fused SHP1 catalytic domain (unknown origin) using p-nitrophenyl phosphate as substrate by spectrophotometric analysis

SMILES: O=C1/C(=N\Nc2ccc(S(=O)(=O)O)cc2)C(c2ccc([N+](=O)[O-])cc2)=NN1c1ccc(Cl)cc1
IC50 [1]: 1160 nM
IC50 [2]: 10.2 µM
IC50 [3]: 8.93 µM

SMILES: O=C1/C(=N\Nc2ccc(S(=O)(=O)O)cc2)C(c2ccc([N+](=O)[O-])cc2)=NN1c1ccc([N+](=O)[O-])cc1
Activity [4]: 42.6%
IC50 [1]: 70 nM
IC50 [2]: 2.08 µM
IC50 [3]: 3.17 µM

SMILES: COc1cccc(-c2nnc3n(Cc4ccccc4Cl)c(=O)c4ccccc4n23)c1O
IC50 [5]: > 100 µM
IC50 [6]: 68 µM

SMILES: Cc1ccc(N2N=C(c3ccc([N+](=O)[O-])cc3)/C(=N/Nc3ccc(S(=O)(=O)O)cc3)C2=O)cc1
IC50 [1]: 410 nM
IC50 [2]: 9.83 µM
IC50 [3]: 6.56 µM

SMILES: O=C1/C(=N\Nc2ccc(S(=O)(=O)O)cc2)C(c2ccc([N+](=O)[O-])cc2)=NN1c1ccc(C(F)(F)F)cc1
IC50 [1]: 940 nM
IC50 [2]: 14.4 µM
IC50 [3]: 10.6 µM

SMILES: COc1ccc(N2N=C(c3ccc([N+](=O)[O-])cc3)/C(=N/Nc3ccc(S(=O)(=O)O)cc3)C2=O)cc1
IC50 [1]: 500 nM
IC50 [2]: 2.14 µM
IC50 [3]: 6.8 µM

SMILES: CCOC(=O)c1ccc(N2N=C(c3ccc([N+](=O)[O-])cc3)/C(=N/Nc3ccc(S(=O)(=O)O)cc3)C2=O)cc1
IC50 [17]: 1800 nM
IC50 [18]: 2100 nM

SMILES: O=C(O)c1ccc(O)c(-c2nnc3n(Cc4ccccc4Cl)c(=O)c4ccccc4n23)c1
IC50 [5]: > 100 µM

SMILES: O=C(Nc1ccc(-c2cc[nH]c2)cc1)C(=O)Nc1cccc(-c2[nH]c3cc(O)c(C(=O)O)cc3c2I)c1
Activity [19]: 52%

SMILES: NC(=O)[C@H](Cc1ccc(C(F)(F)P(=O)(O)O)cc1)NC(=O)[C@H](CC(=O)O)NC(=O)Cc1ccc(C(F)(F)P(=O)(O)O)cc1
IC50 [20]: 11 µM

Next, values leading:

inhibition [7]: 30%
SMILES: Nc1nc(N2CCC3(CC2)Cc2ncccc2[C@H]3N)cnc1Sc1ccnc(N)c1Cl

IC50 [5]: > 100 µM
IC50 [8]: > 100 µM
SMILES: O=c1c2ccccc2n2c(-c3ccccc3O)nnc2n1Cc1ccccc1Cl

IC50 [5]: > 100 µM
SMILES: COc1cccc(-c2nnc3n(Cc4ccc(C(=O)N5CCC[C@H]5C(=O)O)cc4Cl)c(=O)c4ccccc4n23)c1O

IC50 [9]: 3 nM
SMILES: Nc1nc(N2CCC3(CC2)Cc2cnccc2[C@H]3N)cnc1Sc1ccnc(N)c1Cl

IC50 [10]: < 50 nM
SMILES: CC1(CN)CCN(c2ncc(Sc3cccc(Cl)c3Cl)[nH]c2=O)CC1

inhibition [7]: 20%
SMILES: Nc1nc(N2CCC3(CC2)c2ncccc2C[C@H]3N)cnc1Sc1ccnc(N)c1Cl

inhibition ([7]; filed as negative allosteric modulator): 49%
SMILES: Nc1nc(N2CCC3(CC2)Cc2ncsc2[C@H]3N)cnc1Sc1ccnc(N)c1Cl

IC50 [11]: 22.3 nM
SMILES: CC1(N)CCN(c2nc3sc(-c4cccc(Cl)c4Cl)nn3c2CO)CC1

IC50 [12]: > 10 µM
IC50 [13]: > 10 µM
IC50 [14]: > 10 µM
SMILES: Cc1nc(N2CCC3(CC2)CO[C@@H](C)[C@H]3N)c(CO)nc1-c1cccc(Cl)c1Cl

IC50 [11]: 17.9 nM
SMILES: CC1(N)CCN(c2cnc3c(-c4cccc(Cl)c4Cl)n[nH]c3c2)CC1

IC50 [15]: 100 nM
SMILES: C[C@@H]1OCC2(CCC(c3cnc4nc(Sc5ccnc(N6CCCC6)c5Cl)ccc4n3)CC2)[C@@H]1N (some centres undefined)

IC50 [16]: 70 nM
SMILES: Nc1nc(N2CCC3(CCC[C@H]3N)CC2)cnc1-c1cccc(Cl)c1Cl

IC50 [9]: 7 nM
SMILES: Nc1nc(N2CCC3(CC2)Cc2ccncc2[C@H]3N)cnc1Sc1ccnc(N)c1Cl
